Test results published in paper PMC5634595, “Properties of halogenated and sulfonated porphyrins relevant for the selection of photosensitizers in anticancer and antimicrobial therapies” (PLoS ONE, 2017).

What was measured:
[1] = test system: CT26 cells; assay: Dark cytotoxicity, MTT; type: cell-based, murine; settings: CT26, 100 μM, 24 h
Protocol: (§1) The studies were performed on human lung adenocarcinoma (A549), murine colon carcinoma (CT26) and murine endothelial/vascular epithelium (2H11) cell lines. A549, CT26 and 2H11 cells were grown in full-strength DMEM with 4.5 g/L glucose, L-glutamine, sodium pyruvate and 3.7 g/L NaHCO3 (BioTech) with addition of 10% fetal bovine serum (BioTech, Poland) and supplemented by antibiotics (penicillin/streptomycin). Before the experiments, the cells were washed with PBS, removed by trypsinization, then re-plated into microplate (or culture flask) with appropriate cells density and maintained in a humidified atmosphere at 37 °C and 5% CO2.
(§2) MTT cytotoxicity assay (which determines the mitochondrial activity), based upon the ability of living cells to reduce (3-(4,5-dimethylthiazol-2-yl)2,5-diphenyl tetrazolium bromide (MTT) into formazan was used to assess photosensitizer-mediated cytotoxicity. Two identical 96-well plates with A549, CT26 or 2H11 cell cultures seeded on 96-plate microplate (10^4 per well) were used for each experiment. When the cells were attached to the plates, PS solution in growth medium (DMSO<0.5%) at concentrations between 0.1 to 100 μM was added to the culture. Treated cultures were incubated for optimal time (estimated experimentally) at 37°C in the dark. […] Data were expressed as mean absorbance value of six samples and standard error of the mean.

[2] = test system: 2H11 cells; assay: Dark cytotoxicity, MTT; type: cell-based, murine; settings: 2H11, 100 μM, 24 h
Protocol: as §1, §2

[3] = UV/Vis absorption spectra, molar absorption coefficients; type: physicochemical; settings: EtOH
Protocol: All commercial chemicals and reagents were of analytical grade and were purchased from Sigma-Aldrich. UV/Vis absorption spectra were recorded in a Hewlett Packard HP8453 spectrophotometer. Solutions containing samples of photosensitizers were dissolved in the selected solvent in quartz cuvettes. Using measured absorbance for various concentrations of porphyrin in ethanol, the molar absorption coefficients were determined from Beer’s law.

[4] = Fluorescence emission and fluorescence quantum yield (comparative method); type: physicochemical; settings: EtOH, TPP as standard
Protocol: (§3) Fluorescence emission spectra were recorded from 550 nm to 750 nm with excitation at Soret band (λ≈420 nm). The excitation and emission slits were both set to 8 nm and scanning speed to 50 nm/min. Fluorescence spectra were recorded with a Perkin Elmer Fluorescence Spectrometer LS 55. Determination of fluorescence quantum yields: ΦF of studied photosensitizers was determined using the comparative method according to the equation: ΦF=ΦFStd⋅FAStdn^2/FStdAnStd2, (1) where F and FStd are the areas under the fluorescence emission curves of the sample and the standard, A and AStd are the absorbance of the sample and the standard and n are the refractive indices of the solvent used for the sample and the standard, respectively. Commercially available tetraphenylporphyrin TPP (Std) (ΦF = 0.10 in toluene) was employed as the standard. The absorbance of the solutions at the excitation wavelength was in the range of 0.02. Singlet oxygen quantum yields were determined based on the relative phosphorescence emissions of singlet oxygen generated by a reference and by each one of the porphyrins, using a method described elsewhere. Briefly, a modified Applied Photophysics LKS.60 flash photolysis spectrometer with a Hamamatsu NIR photomultiplier for detection and HP Infinium (500 MHz, 1GSas^-1) or Tektronix DPO 7254 (2.5 GHz, 40GSas^-1) oscilloscopes were used. The adaptation of this spectrometer allowed for the detection of singlet oxygen phosphorescence at room temperature. This emission was detected using a Hamamatsu R5509–42 photomultiplier, cooled to 193 K in a liquid nitrogen chamber. […] The modification of the spectrometer for time-resolved singlet oxygen phosphorescence measurements involved the interposition of a Melles Griot cold mirror (03MCS005), which reflects more than 99% of the incident light in the 400–700 nm range, and of a Scotch RG665 filter. A 600 line diffraction grating was mounted in place of a standard one. […] Solutions of photosensitizers were prepared with matched absorbances close to 0.2 at 355 nm. […]

[5] = n-Octanol/PBS partition coefficient, shake-flask; type: physicochemical; settings: modified shake-flask
Protocol: The n-octanol/PBS partition coefficients were measured following shake-flask method with minor modifications. The photosensitizers were dissolved in n-octanol previously saturated with a solution of PBS. The same volume of PBS saturated with n-octanol was added and mixed on a vortex device and then the phases were separated by centrifugation. Next, the PBS/n-octanol phase was taken and diluted to obtain 0.5% of PBS/n-octanol content in the final solution. This solution was left into the ultrasonic bath. The fluorescence of each solution was measured using Fluorescence Spectrometer LS 55 (Perkin Elmer) and compared with calibration curve to obtain the concentration of the photosensitizer. Partition coefficients were calculated from the ratio coct/cPBS, where coct and cPBS are the concentrations of the porphyrin derivatives in the n-octanol and in the PBS.

[6] = Singlet oxygen quantum yield by phosphorescence at 1270 nm; type: physicochemical; settings: EtOH, phenalenone as reference
Protocol: as §3

With `O=S(=O)(O)c1ccc(F)c(-c2c3nc(c(-c4c(F)ccc(S(=O)(=O)O)c4F)c4ccc([nH]4)c(-c4c(F)ccc(S(=O)(=O)O)c4F)c4nc(c(-c5c(F)ccc(S(=O)(=O)O)c5F)c5ccc2[nH]5)C=C4)C=C3)c1F` [F2POH, 5,10,15,20-tetrakis(2,6-difluoro-3-sulfophenyl)porphyrin] the “Cytotoxicity in the dark” value [1] was 25%, the “Cytotoxicity in the dark” value [2] was 25% and the “Absorption λmax, Qx (0,1)” value [3] was 584 nm. The “Absorption λmax, Qx(0,0)” value [3] was 638 nm, the “Absorption λmax, Qy (0,0)” value [3] was 532 nm and the “Absorption λmax, Qy (0,1)” value [3] was 508 nm. The “Absorption λmax, B(0,0)” value ([3]; Soret band) was 420 nm, the “Fluorescence quantum yield ΦF” value [4] was 0.040 and the logP [5] was -1.74. For the same compound, the “Singlet oxygen quantum yield ΦΔ” value [6] was 0.71.
